The values that follow come from US9611254B2, “Triazole compounds and their use as gamma secretase modulators” (Acturum Life Science AB, priority 2013, dated 2017).

For test [1], the system named is Aβ42. Briefly: HEK assay: Aβ42 secreted by HEK cells stably expressing APPswe (Meso Scale electrochemiluminescence). Type of test: cell-based, Human. The conditions noted are these: 4-6 hours incubation with compound, Aβ42 in cell medium; for IC50: Homo sapiens, HEK293, HEK cell line stably expressing APPswe, read-out: pIC50 Aβ42 HEK assay (converted). The procedure:
Compounds were diluted in 100% DMSO and stored at […] prior to use. Human Embryonic Kidney (HEK) cell line stably expressing APP with the Swedish mutation (APPswe) was cultured using Dulbecco's Modified Eagles medium (DMEM) supplied with […] glucose, Na-pyruvate and GlutaMAX, 10% Foetal bovine serum, 100 U/mL penicillin-streptomycin (PEST), 1× non-essential amino acids (NEAA), […] Hepes, 100 μg/mL Zeocine. Cells at about 80% confluence were washed with PBS, detached from culture flasks using 1× Trypsin/EDTA diluted in PBS, re-suspended in cell media and plated in 384-well poly-d-lysine coated cell culture plates at about 10000-15000 cells/well, in 25 μL cell media. Optionally, cryo-preserved cells (frozen and stored at −140° C. in 90% cell media and 10% DMSO) were thawed, washed and plated as above. Next the cells were incubated for 15-24 h at 37° C. and 5% CO2, after which cell medium was changed. Fresh medium containing test compound diluted ×200 from prepared compound plate was added to the cells before further incubation for 4-6 hours at 37° C. and 5% CO2. After incubation with test compound the amount of Aβ peptides, including Aβ42, Aβ40, Aβ39, Aβ38 and Aβ37, secreted to cell medium was analyzed using the electrochemiluminescence assay technology from Meso Scale Discovery Technology, in combination with specific antibodies raised against the different Aβ peptides. Potential cytotoxic effects of the compounds were assayed by measuring the ATP content (ViaLight) from cell lysate.

In test [2] the test system is Aβ42. Briefly: PCN assay: Aβ42 secreted by mouse primary cortical neuronal cells (ELISA). Conditions: primary cortical neuronal cells from 16-day mouse embryos, 16-20 hours incubation with compound, Aβ42 in cell medium; for IC50: Mus musculus, read-out: pIC50 Aβ42 PCN assay (converted). Type of test: cell-based. The procedure: Compounds were diluted in 100% DMSO and stored at […] prior to use. Primary cortical neuronal cells (PCN) were isolated from 16-day mouse embryos and cultured in Ham's F12 media containing 10% Foetal bovine serum, 10 mM Hepes, 2 mM L-glutamine and 100 U/mL Penicillin-Streptomycin. 150000-250000 cells/well, in 200 μL cell media were seeded onto 96-well poly-D-Lysine coated plates. After incubation at 37° C., 5% CO2 for five days, the media was exchanged for fresh medium containing test compound diluted ×100, before further incubation for 16-20 hours at 37° C. and 5% CO2. After incubation with test compound the amount of Aβ42 peptides secreted to cell medium was analyzed using the solid phase sandwich Enzyme-Linked-Immuno-Sorbent Assay (ELISA)-kit from Invitrogen for detection of mouse βAmyloid 1-42. Potential cytotoxic effects of the compounds were assayed by measuring the ATP content (Via Light) from cell lysate.

In the case of `COc1cc(Nc2nc(N3CCC3c3ccccc3)n(CC(C)(C)O)n2)ccc1-n1cnc(C)c1` (racemic) [Example 5, 1-(3-(3-Methoxy-4-(4-methyl-1H-imidazol-1-yl)phenylamino)-5-(2-phenylazetidin-1-yl)-1H-1,2,4-triazol-1-yl)-2-methylpropan-2-ol], the IC50 in test [1] is 25.1 nM; in test [2] it was 31.6 nM.

Consider `COc1cc(Nc2nc(N3CCC3c3ccccc3)n(CC(C)(C)O)n2)ccc1-n1cnc(C)c1` (single isomer, unassigned; isomer 1) [Example 6, 1-(3-(3-Methoxy-4-(4-methyl-1H-imidazol-1-yl)phenylamino)-5-(2-phenylazetidin-1-yl)-1H-1,2,4-triazol-1-yl)-2-methylpropan-2-ol, isomer 1], for which, in test [1], the IC50 was 25.1 nM. The “pIC50 Aβ42 PCN assay” value in test [2] is 7.2.

As to `COc1cc(Nc2nc(N3CCC3c3ccccc3)n(CC(C)(C)O)n2)ccc1-n1cnc(C)c1` (single isomer, unassigned; isomer 2) [Example 7, 1-(3-(3-Methoxy-4-(4-methyl-1H-imidazol-1-yl)phenylamino)-5-(2-phenylazetidin-1-yl)-1H-1,2,4-triazol-1-yl)-2-methylpropan-2-ol, isomer 2], in test [1] (HEK cell line stably expressing APPswe), the “pIC50 Aβ42 HEK assay” value is 7.8. The “pIC50 Aβ42 PCN assay” value in test [2] is 7.7.

As to `COc1cc(Nc2nc(N3CC(c4ccccc4)C3)n(CC(C)(C)O)n2)ccc1-n1cnc(C)c1` [Example 1, 1-(3-(3-Methoxy-4-(4-methyl-1H-imidazol-1-yl)phenylamino)-5-(3-phenylazetidin-1-yl)-1H-1,2,4-triazol-1-yl)-2-methylpropan-2-ol], the IC50 was 39.8 nM in test [1] and 15.8 nM in test [2].

In the case of `COc1cc(Nc2nc(N3CC(F)(c4ccccc4)C3)n(CC(C)(C)O)n2)ccc1-n1cnc(C)c1` [Example 2, 1-(5-(3-Fluoro-3-phenylazetidin-1-yl)-3-(3-methoxy-4-(4-methyl-1H-imidazol-1-yl)phenylamino)-1H-1,2,4-triazol-1-yl)-2-methylpropan-2-ol], the values for the IC50 in test [1] and in test [2] were 50.1 nM and 31.6 nM, respectively.

With `COc1cc(Nc2nc(N3CC(c4ccccc4)C3)n(C)n2)ccc1-n1cnc(C)c1` [Example 3, N-(3-Methoxy-4-(4-methyl-1H-imidazol-1-yl)phenyl)-1-methyl-5-(3-phenylazetidin-1-yl)-1H-1,2,4-triazol-3-amine], the values for the IC50 in test [1] and in test [2] were 39.8 nM and 79.4 nM, respectively.

Regarding `COc1cc(Nc2nc(N3CCC3c3ccccc3)n(C)n2)ccc1-n1cnc(C)c1` (stereo not drawn) [Example 4, N-(3-Methoxy-4-(4-methyl-1H-imidazol-1-yl)phenyl)-1-methyl-5-(2-phenylazetidin-1-yl)-1H-1,2,4-triazol-3-amine], the IC50 in test [1] and in test [2] was 25.1 nM throughout.

For the compound `COc1cc(Nc2nc(N3CC4(CCC4)C3)n(CC(C)(C)O)n2)ccc1-n1cnc(C)c1` [Example 8, 1-(3-(3-Methoxy-4-(4-methyl-1H-imidazol-1-yl)phenylamino)-5-(2-azaspiro[3.3]heptan-2-yl)-1H-1,2,4-triazol-1-yl)-2-methylpropan-2-ol], the figures for the IC50 in test [1] and in test [2] were 50.1 nM and 63.1 nM, respectively.

As to `COc1cc(Nc2nc(N3CCC34CCCC4)n(CC(C)(C)O)n2)ccc1-n1cnc(C)c1` [Example 9, 1-(3-(3-Methoxy-4-(4-methyl-1H-imidazol-1-yl)phenylamino)-5-(1-azaspiro[3.4]octan-1-yl)-1H-1,2,4-triazol-1-yl)-2-methylpropan-2-ol], the IC50 in test [1] and in test [2] was 31.6 nM throughout.
